Results from publication PMC12016938, “A small molecule PKCε inhibitor reduces hyperalgesia induced by paclitaxel or opioid withdrawal” (JCI Insight, 2025).
Several values for one entry are separate records, joined by “and”; a condition that tells them apart may be missing. Equal values may be shown once. Read-outs that look alike come from different tables or passages of the source.

Tested on: morphine self-administration
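Further: rats trained to self-administer intravenous morphine at 500 µg/kg per infusion, first under FR1 then FR3.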

**Q.** What does the source list for N[C@H](CNC(=O)C1(c2ccc(Cl)cc2)CCCC1)c1ccc(C(=O)Nc2ccncc2)cc1 [CP612]?
**A.** D7 IH (FR3) (inactive hole responses, Day 7, fixed ratio 3, mean of CP612 group, n=7): 4.57; D8 IH (FR3) (inactive hole responses, Day 8, fixed ratio 3, mean of CP612 group, n=7): 6.43; D9 IH (FR3) (inactive hole responses, Day 9, fixed ratio 3, mean of CP612 group, n=7): 5.57; D10 IH (PR1) (inactive hole responses, Day 10, PR1, CP612 6 hours prior, group mean, n=7): 13.00; D12 IH (PR2_WD) (inactive hole responses, Day 12, PR2 withdrawal, CP612 6 hours prior, group mean, n=6): 10.67; D13 IH (PR3_Nal) (inactive hole responses, Day 13, PR3_Nal, CP612 6 hours prior, group mean, n=7): 8.86; D9 IH (avg all) (inactive hole responses, average of all days D1-D9, mean of CP612 group, n=7): 8.73; D9 IH (avg last 3 days) (inactive hole responses, average of last 3 days, mean of CP612 group, n=7): 5.52; D10 AH (PR1) Log (log of active hole responses, Day 10, PR1, CP612 6 hours prior, group mean, n=7): 2.04; D12 AH (PR2_WD) Log (log of active hole responses, Day 12, PR2 withdrawal, CP612 6 hours prior, group mean, n=6): 1.94; D13 AH (PR3_Nal) Log (log of active hole responses, Day 13, PR3_Nal, CP612 6 hours prior, group mean, n=7): 1.85; D10 IH (PR1) Log (log of inactive hole responses, Day 10, PR1, CP612 6 hours prior, group mean, n=7): 1.03; D12 IH (PR2_WD) Log (log of inactive hole responses, Day 12, PR2 withdrawal, CP612 6 hours prior, group mean, n=6): 0.89; D13 IH (PR3_Nal) Log (log of inactive hole responses, Day 13, PR3_Nal, CP612 6 hours prior, group mean, n=7): 0.88; D10 Inf (PR1) Log (log of infusions, Day 10, PR1, CP612 6 hours prior, group mean, n=7): 0.94; D12 Inf (PR2_WD) Log (log of infusions, Day 12, PR2 withdrawal, CP612 6 hours prior, group mean, n=6): 0.91; D13 Inf (PR3_Nal) Log (log of infusions, Day 13, PR3_Nal, CP612 6 hours prior, group mean, n=7): 0.85; D12 Inf (PR2_WD) Log (log of infusions, PR2_WD, day 12, individual rats): 1.04 and 0.85 and 0.90; D10 Latency (PR1) Log (log of latency, Day 10, PR1, CP612 6 hours prior, group mean, n=7): -0.40; D12 Latency (PR2_WD) Log (log of latency, Day 12, PR2 withdrawal, CP612 6 hours prior, group mean, n=6): -0.00262; D13 Latency (PR3_Nal) Log (log of latency, Day 13, PR3_Nal, CP612 6 hours prior, group mean, n=7): -0.48; D2 Inf (FR1) (morphine infusions, Day 2, fixed ratio 1, mean of CP612 group, n=7): 10.71; D3 Inf (FR1) (morphine infusions, Day 3, fixed ratio 1, mean of CP612 group, n=7): 10.86; D4 Inf (FR1) (morphine infusions, Day 4, fixed ratio 1, mean of CP612 group, n=7): 11.00; D4 Inf (FR3) (morphine infusions, Day 4, fixed ratio 3, mean of CP612 group, n=7): 11.00; D5 Inf (FR3) (morphine infusions, Day 5, fixed ratio 3, mean of CP612 group, n=7): 6.43; D6 Inf (FR3) (morphine infusions, Day 6, fixed ratio 3, mean of CP612 group, n=7): 7.14; D7 Inf (FR3) (morphine infusions, Day 7, fixed ratio 3, mean of CP612 group, n=7): 7.71; D8 Inf (FR3) (morphine infusions, Day 8, fixed ratio 3, mean of CP612 group, n=7): 9.57; D9 Inf (FR3) (morphine infusions, Day 9, fixed ratio 3, mean of CP612 group, n=7): 10.29; D10 Inf (PR1) (morphine infusions, Day 10, progressive ratio test PR1, CP612 6 hours prior, group mean, n=7): 8.86; D12 Inf (PR2_WD) (morphine infusions, Day 12, progressive ratio test PR2 in withdrawal, CP612 6 hours prior, group mean, n=6): 8.17; D13 Inf (PR3_Nal) (morphine infusions, Day 13, progressive ratio test PR3_Nal, CP612 6 hours prior, group mean, n=7): 7.29; Inf (avg all) (morphine infusions, average of all self-administration days D1-D9, mean of CP612 group, n=7): 9.33; Inf (avg last 3 days) (morphine infusions, average of last 3 days, mean of CP612 group, n=7): 9.19; D12 Inf (PR2_WD) (morphine infusions, progressive ratio session PR2_WD, day 12, individual rats): 11 and 7 and 8; D1 Inf (FR1) (morphine infusions, self-administration Day 1, fixed ratio 1, mean of CP612 group, n=7): 10.29; D1 Latency (FR1) (time to first infusion, Day 1, fixed ratio 1, mean of CP612 group, n=7): 3.00 min; D2 Latency (FR1) (time to first infusion, Day 2, fixed ratio 1, mean of CP612 group, n=7): 1.98 min; D3 Latency (FR1) (time to first infusion, Day 3, fixed ratio 1, mean of CP612 group, n=7): 0.73 min; D4 Latency (FR3) (time to first infusion, Day 4, fixed ratio 3, mean of CP612 group, n=7): 0.44 min; D5 Latency (FR3) (time to first infusion, Day 5, fixed ratio 3, mean of CP612 group, n=7): 0.20 min; D6 Latency (FR3) (time to first infusion, Day 6, fixed ratio 3, mean of CP612 group, n=7): 0.53 min; D7 Latency (FR3) (time to first infusion, Day 7, fixed ratio 3, mean of CP612 group, n=7): 0.53 min; D8 Latency (FR3) (time to first infusion, Day 8, fixed ratio 3, mean of CP612 group, n=7): 0.46 min; D9 Latency (FR3) (time to first infusion, Day 9, fixed ratio 3, mean of CP612 group, n=7): 0.44 min; D10 Latency (PR1) (time to first infusion, Day 10, PR1, CP612 6 hours prior, group mean, n=7): 0.60 min; D12 Latency (PR2_WD) (time to first infusion, Day 12, PR2 withdrawal, CP612 6 hours prior, group mean, n=6): 1.44 min; D13 Latency (PR3_Nal) (time to first infusion, Day 13, PR3_Nal, CP612 6 hours prior, group mean, n=7): 0.75 min; D9 Latency (avg all) (time to first infusion, average of all days D1-D9, mean of CP612 group, n=7): 0.92 min; D9 Latency (avg last 3 days) (time to first infusion, average of last 3 days, mean of CP612 group, n=7): 0.48 min
